Experimental data taken from PubChem BioAssay AID1057 (University of Pittsburgh Molecular Library Screening Center, 2008).
Calls of active or inactive are those of the source. How the calls were made is not given here.

What follows are compounds tested against Serine/threonine-protein kinase PLK1 (Homo sapiens) (UniProt P53350) (assay: PLK1 polo-box domain peptide-binding inhibitors, SAR follow-up, biochemical, fluorescence polarization, synthesized analogs, concentration response (AID 1057)). Conditions: Plk1 PBD fluorescence polarization peptide binding.
Sequence of Serine/threonine-protein kinase PLK1 (Homo sapiens) (P53350 whole entry, looked up, the tested form may be a part): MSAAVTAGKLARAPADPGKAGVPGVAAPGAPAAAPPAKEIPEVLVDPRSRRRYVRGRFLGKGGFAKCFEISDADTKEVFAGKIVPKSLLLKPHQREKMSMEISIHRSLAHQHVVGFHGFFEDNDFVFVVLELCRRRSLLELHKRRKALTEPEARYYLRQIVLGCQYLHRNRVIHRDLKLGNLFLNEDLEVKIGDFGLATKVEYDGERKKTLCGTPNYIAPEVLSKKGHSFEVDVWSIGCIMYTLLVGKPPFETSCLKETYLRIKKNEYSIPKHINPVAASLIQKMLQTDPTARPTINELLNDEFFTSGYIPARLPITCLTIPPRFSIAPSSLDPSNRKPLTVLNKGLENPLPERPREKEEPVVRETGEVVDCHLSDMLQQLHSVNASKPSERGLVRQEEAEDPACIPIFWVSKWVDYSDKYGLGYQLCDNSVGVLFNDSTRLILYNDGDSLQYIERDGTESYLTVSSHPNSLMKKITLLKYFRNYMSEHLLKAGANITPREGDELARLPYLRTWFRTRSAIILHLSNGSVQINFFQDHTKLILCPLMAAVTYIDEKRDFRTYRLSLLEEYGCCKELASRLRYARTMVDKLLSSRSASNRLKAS

| SMILES | IC50 |
| --- | --- |
| Cc1cccc(N/N=C/c2c(O)[nH]c(=S)[nH]c2=O)c1 | > 50 µM (inactive) |
| C/C(=N\NC(=O)c1ccncc1)c1c(O)[nH]c(=O)[nH]c1=O | > 50 µM (inactive) |
| CCOC(=O)CCCCCNC(=O)c1c(O)[nH]c(=O)[nH]c1=O | > 50 µM (inactive) |
